Reference: patent US20260035367A1 (Celgene Corporation, priority 2021, published 2026)
Where two headings read alike, the source gives them in different places.

Legend:
[1] = biological target: T1, Recombinant human PKC-theta (His-tagged 362-706) (Homo sapiens, UniProt Q04759); assay: PKC-theta inhibition assay (HTRF KinEASE kit); assay type: biochemical; details: ATP 6.5 μM, STK substrate 525 nM
T1 construct: Recombinant human PKC-theta (His-tagged 362-706); His
Procedure, shortened: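 IC50 values were from 4-parameter logistic fits of percent inhibition, based on acceptor/donor HTRF ratios over 10 semi-log compound doses. Kinase reactions, started with substrate plus ATP, ran 30 min at 25 °C in buffer supplemented with 10 mM MgCl2, 1 mM DTT and 0.1% Tween 20; detection lasted 2 h.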

[2] = tested on: IL-2 secretion by human effector memory T cells (TEM); assay: Effector memory T cells IL-2 release assay (CD3/CD28 stimulation, HTRF IL-2 detection); assay type: cell-based; details: Homo sapiens, T-cell, 24 h
Procedure, shortened: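 Human effector memory T cells from healthy-donor buffy coats were exposed in triplicate to ten semi-log doses of compound in 0.1% DMSO. The cells were stimulated and incubated 24 h at 37 °C. Secreted IL-2 in the supernatant was measured by HTRF.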

[3] = biological target: T2, Recombinant human PKC-delta (His-tagged 345-676) (Homo sapiens, UniProt Q05655); assay: PKC-delta inhibition assay (HTRF KinEASE kit); assay type: biochemical; details: ratio, PKC-theta vs PKC-delta HTRF; for PKC-theta/PKC-delta selectivity (binned): binned A to G
T2 construct: PKC-delta (His-tagged 345-676); His

[4] = binned A to H, read-out: PKC-theta HTRF pIC50 (binned) (converted)
[5] = read-out: PKC-theta HTRF pIC50 (converted)
[6] = binned A to G, read-out: PKC-theta IL2 pIC50 (binned) (converted)
[7] = read-out: PKC-theta IL2 pIC50 (converted)

T1 sequence (Q04759 362-706): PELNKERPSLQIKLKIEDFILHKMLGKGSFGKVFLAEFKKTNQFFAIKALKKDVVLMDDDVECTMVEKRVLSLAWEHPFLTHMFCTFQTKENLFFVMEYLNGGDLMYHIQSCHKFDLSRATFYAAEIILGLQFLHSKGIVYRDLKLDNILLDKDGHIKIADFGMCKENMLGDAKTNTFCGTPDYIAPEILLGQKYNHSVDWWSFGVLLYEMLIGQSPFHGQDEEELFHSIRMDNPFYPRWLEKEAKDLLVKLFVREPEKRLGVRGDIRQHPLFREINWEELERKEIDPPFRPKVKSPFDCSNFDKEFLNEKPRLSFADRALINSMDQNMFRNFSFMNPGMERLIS
T2 sequence (Q05655 345-676): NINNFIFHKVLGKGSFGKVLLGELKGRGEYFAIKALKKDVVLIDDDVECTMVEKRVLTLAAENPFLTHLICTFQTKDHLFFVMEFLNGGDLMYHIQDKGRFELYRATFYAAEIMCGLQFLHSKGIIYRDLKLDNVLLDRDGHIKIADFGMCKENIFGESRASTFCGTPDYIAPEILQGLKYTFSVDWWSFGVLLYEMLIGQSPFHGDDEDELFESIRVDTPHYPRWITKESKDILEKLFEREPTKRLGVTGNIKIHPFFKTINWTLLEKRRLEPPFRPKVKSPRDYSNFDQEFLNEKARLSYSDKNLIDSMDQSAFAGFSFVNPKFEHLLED

Row | Compound | IC50 [1, 4] [nM] | IC50 [1, 5] [nM] | IC50 [2, 6] [nM] | IC50 [2, 7] [nM] | PKC-theta/PKC-delta selectivity [3] | PKC-theta/PKC-delta selectivity (binned) [3]
1 | O=C1Nc2nccc(-c3cc(F)cc(N4CCNCC4)c3)c2C12CC2 [Example 34] | > 1000 | 1000 | > 1000 | 3980 | 2 | F (a ratio of between 1 and 5)
2 | CC1(C)C(=O)Nc2nccc(-c3ccnc(N4CCNCC4)c3)c21 [Example 28] | > 1000 | 1260 | > 1000 | 10000 | 1 | G (a ratio of 0 to 1)
3 | O=c1[nH]c2nccc(-c3cccc(N4CCNCC4c4cccnc4)c3)c2[nH]1 (stereo not drawn) [Example 12] | > 1000 | 5010 | > 1000 | 10000 | 1 | G (a ratio of 0 to 1)
4 | CC[C@@]1(O)C(=O)Nc2nccc(-c3cc(Cl)cc(N4CCN[C@@H](C)C4)n3)c21 (single isomer, unassigned) [Example 162] | 100 to 316 | 316 | 316 to 1000 | 794 | 33 | B (a ratio of between 30 and 50)
5 | CCC1(C)C(=O)Nc2nccc(-c3cc(F)cc(N4CCNCC4)c3)c21 (stereo not drawn) [Example 33] | 31.6 to 100 | 50.1 | 316 to 1000 | 794 | 2 | F (a ratio of between 1 and 5)
6 | CC[C@]1(C)C(=O)Nc2nccc(-c3cc(C(C)(F)F)cc(N4CCCNCC4)n3)c21 (single isomer, unassigned) [Example 205] | 3.16 to 10 | 3.98 | 31.6 to 100 | 79.4 | 13 | D (a ratio of between 10 and 20)
7 | C[C@@H]1CNCCN1c1cc(Cl)cc(-c2c(F)cnc3c2C(C)(C)C(=O)N3)n1 [Example 155] | 3.16 to 10 | 3.98 | 31.6 to 100 | 50.1 | 17 | D (a ratio of between 10 and 20)
8 | CC[C@@]1(C)C(=O)Nc2nccc(-c3cc(C(C)(F)F)cc(N4CCCNCC4)n3)c21 (single isomer, unassigned) [Example 206] | 31.6 to 100 | 31.6 | 316 to 1000 | 631 | 23 | C (a ratio of between 20 and 30)
9 | Cc1cc(-c2ccnc3c2C(C)(C)C(=O)N3)cc(N2CCNCC2)c1 [Example 61] | 31.6 to 100 | 50.1 | 316 to 1000 | 794 | 6 | E (a ratio of between 5 and 10)
10 | CC1(C)C(=O)Nc2nccc(-c3cc(C(F)(F)F)cc(C4(CO)CCNC4)n3)c21 (stereo not drawn) [Example 70] | 1 to 3.16 | 2.51 | 316 to 1000 | 398 | 30 | B (a ratio of between 30 and 50)
11 | CC1(C)C(=O)Nc2nccc(-c3cccc(C4(CO)CCNC4)c3)c21 (stereo not drawn) [Example 43] | 3.16 to 10 | 7.94 | 316 to 1000 | 631 | 3 | F (a ratio of between 1 and 5)
12 | CC1(C)C(=O)Nc2nccc(-c3cccc(C4(CN)COC4)c3)c21 [Example 44] | 100 to 316 | 200 | > 1000 | 10000 | 4 | F (a ratio of between 1 and 5)
13 | CC1(C)C(=O)Nc2nccc(-c3nc(N4CCNCC4)c(F)cc3Cl)c21 [Example 207] | 100 to 316 | 251 | > 1000 | 2000 | 5 | F (a ratio of between 1 and 5)
14 | C[C@@H]1CN(c2cc(-c3ccnc4c3C(C)(O)C(=O)N4)cc(C(F)(F)F)c2)CCN1 (stereo partly drawn) [Example 77] | 31.6 to 100 | 100 | > 1000 | 2510 | 12 | D (a ratio of between 10 and 20)
15 | C[C@@H]1CN(c2cc(C(F)(F)F)cc(-c3ccnc4c3[C@](C)(O)C(=O)N4)n2)[C@@H](C)CN1 (single isomer, unassigned) [Example 118] | 10 to 31.6 | 25.1 | 100 to 316 | 251 | 12 | D (a ratio of between 10 and 20)
16 | O=C1Nc2nccc(-c3cc(C(F)(F)F)cc(N4CCNCC4)n3)c2C12CCCC2 [Example 103] | 10 to 31.6 | 15.8 | 100 to 316 | 100 | 6 | E (a ratio of between 5 and 10)
17 | C[C@@H]1CNCCN(c2cc(C(F)(F)F)cc(-c3ccnc4c3C(C)(C)C(=O)N4)n2)C1 [Example 182] | 3.16 to 10 | 7.94 | 100 to 316 | 158 | 25 | C (a ratio of between 20 and 30)
18 | C[C@@]1(O)C(=O)Nc2nccc(-c3cc(C(F)(F)F)cc(N4CC[C@H]5OCCN[C@@H]5C4)n3)c21 (single isomer, unassigned) [Example 97] | 100 to 316 | 158 | > 1000 | 3980 | 21 | C (a ratio of between 20 and 30)
19 | CC1(C)C(=O)Nc2nccc(-c3cccc(N4CCNCC4)c3)c21 [Example 23] | 100 to 316 | 100 | > 1000 | 1580 | 2 | F (a ratio of between 1 and 5)
20 | CC[C@H]1CN(c2cc(Cl)cc(-c3ccnc4c3C(C)(OC)C(=O)N4)n2)CCN1 (stereo partly drawn) [Example 130] | 3.16 to 10 | 7.94 | 100 to 316 | 158 | 8 | E (a ratio of between 5 and 10)
21 | C[C@@]1(O)C(=O)Nc2nccc(-c3cc(Cl)cc(N4CCNCC(F)C4)n3)c21 (single isomer, unassigned) [Example 91] | 3.16 to 10 | 6.31 | 100 to 316 | 200 | 6 | E (a ratio of between 5 and 10)
22 | COC1(C)C(=O)Nc2nccc(-c3cc(Cl)cc(N4CCN[C@@H](C)C4)n3)c21 (stereo partly drawn) [Example 115] | 3.16 to 10 | 10 | 100 to 316 | 158 | 12 | D (a ratio of between 10 and 20)
23 | CC[C@]1(O)C(=O)Nc2nccc(-c3cc(Cl)cc(N4CCN[C@@H](C)C4)n3)c21 (single isomer, unassigned) [Example 163] | 3.16 to 10 | 3.98 | 10 to 31.6 | 31.6 | 10 | D (a ratio of between 10 and 20)
24 | CC[C@]1(C)C(=O)Nc2nccc(-c3cc(C(F)(F)F)cc(N4CCNC[C@H]4C)n3)c21 (single isomer, unassigned) [Example 197] | 0.316 to 1 | 1 | 10 to 31.6 | 15.8 | 14 | D (a ratio of between 10 and 20)
25 | C[C@H]1CNCCN(c2cc(C(F)(F)F)cc(-c3ccnc4c3C(C)(C)C(=O)N4)n2)C1 [Example 181] | 10 to 31.6 | 12.6 | 100 to 316 | 158 | 12 | D (a ratio of between 10 and 20)
26 | C[C@@]1(O)C(=O)Nc2nccc(-c3cc(C(F)(F)F)cc(N4CCNC(CC(F)(F)F)C4)n3)c21 (stereo partly drawn) [Example 125] | 10 to 31.6 | 15.8 | 316 to 1000 | 398 | 13 | D (a ratio of between 10 and 20)
27 | CC1(C)C(=O)Nc2nccc(-c3cc(C(F)(F)F)cc(N4CCN[C@@H](CO)C4)n3)c21 [Example 83] | 1 to 3.16 | 3.16 | 31.6 to 100 | 79.4 | 20 | D (a ratio of between 10 and 20)
28 | C[C@H]1CN(c2cc(C(F)(F)F)cc(-c3ccnc4c3[C@](C)(O)C(=O)N4)n2)CCN1 (single isomer, unassigned) [Example 95] | 1 to 3.16 | 2 | 31.6 to 100 | 31.6 | 15 | D (a ratio of between 10 and 20)
29 | O=c1[nH]c2nccc(-c3cc(Cl)cc(N4CCNCC4)c3)c2[nH]1 [Example 10] | 316 to 1000 | 316 | > 1000 | 2000 | 1 | F (a ratio of between 1 and 5)
